Target: Tyrosine-protein kinase JAK2 (Homo sapiens, UniProt O60674)
Experiment: JAK2 Inhibition Assay: Compounds of Formula I were screened for their ability to inhibit JAK2 using the general enzyme inhibition assay method, in which the assay mixture contained 1 mM ATP, 10 μM Omnia® Y7 peptide (Catalog # IVGN KNZ3071C, Invitrogen Corporation, Carlsbad, Calif.) and 4 nM JAK2 in a total volume of 25 μL. JAK2 was purchased from Invitrogen Corporation, Carlsbad, Calif. (catalog # IVGN PV4288).

Sequence of Tyrosine-protein kinase JAK2 (O60674 whole entry): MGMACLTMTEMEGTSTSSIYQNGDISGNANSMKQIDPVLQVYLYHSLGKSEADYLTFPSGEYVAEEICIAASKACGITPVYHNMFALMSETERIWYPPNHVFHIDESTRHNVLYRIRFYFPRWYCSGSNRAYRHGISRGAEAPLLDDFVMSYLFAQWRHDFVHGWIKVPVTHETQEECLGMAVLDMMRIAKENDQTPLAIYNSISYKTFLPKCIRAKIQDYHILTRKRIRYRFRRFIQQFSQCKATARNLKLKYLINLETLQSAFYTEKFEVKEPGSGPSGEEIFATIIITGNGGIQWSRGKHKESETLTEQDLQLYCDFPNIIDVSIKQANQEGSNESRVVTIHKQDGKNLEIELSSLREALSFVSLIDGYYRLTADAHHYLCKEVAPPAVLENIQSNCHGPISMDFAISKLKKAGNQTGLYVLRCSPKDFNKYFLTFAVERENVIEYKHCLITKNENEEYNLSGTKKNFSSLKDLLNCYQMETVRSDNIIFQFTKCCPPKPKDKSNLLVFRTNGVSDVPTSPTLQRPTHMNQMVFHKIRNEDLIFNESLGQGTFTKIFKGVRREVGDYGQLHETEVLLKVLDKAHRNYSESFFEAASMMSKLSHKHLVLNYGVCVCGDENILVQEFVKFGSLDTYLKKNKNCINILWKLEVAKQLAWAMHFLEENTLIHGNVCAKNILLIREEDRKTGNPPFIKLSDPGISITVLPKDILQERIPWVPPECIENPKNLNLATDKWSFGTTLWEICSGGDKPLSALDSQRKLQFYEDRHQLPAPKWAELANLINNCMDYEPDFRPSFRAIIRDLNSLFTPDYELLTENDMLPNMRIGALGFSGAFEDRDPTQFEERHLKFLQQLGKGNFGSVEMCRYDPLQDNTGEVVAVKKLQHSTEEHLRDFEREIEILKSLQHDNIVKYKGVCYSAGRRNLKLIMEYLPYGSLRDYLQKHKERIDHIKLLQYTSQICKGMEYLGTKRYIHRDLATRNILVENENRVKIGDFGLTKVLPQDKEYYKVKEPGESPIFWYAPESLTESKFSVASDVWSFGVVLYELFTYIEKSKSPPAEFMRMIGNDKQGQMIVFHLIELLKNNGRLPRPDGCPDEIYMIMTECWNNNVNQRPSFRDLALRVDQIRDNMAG

IC50: < 10 nM
Structure (SMILES): CCC(CC)n1cc(-c2nc(-c3cnn([C@H]4C[C@](O)(CO)C4)c3)cn3nccc23)cn1

Reference: ChEMBL document CHEMBL5728516, “4,6-substituted-pyrazolo[1,5-a]pyrazines as janus kinase inhibitors” (2021)
